Values of other authors, collected in patent US8497291B2 (Cyclacel Limited, priority 2005, dated 2013).
Like-named read-outs stand apart in the source and are kept apart here.

Assays:
[1] = tested on: variety of cell lines, xenograft and metastatic cancer model
[2] = tested on: colon cancer; conditions: model of colon cancer
[3] = phase I, patients with a variety of cancers

CCCCCCCCCCCCCCCC(=O)Nc1ccn([C@@H]2O[C@H](CO)[C@@H](O)[C@@H]2C#N)c(=O)n1 [CYC682, 2′-cyano-2′-deoxy-N^4-palmitoyl-1-β-D-arabinofuranosylcytosine]
anti-tumour activity ([1]; as demonstrated in EP 536936): excellent anti-tumour activity | anti-tumour activity ([1]; variety of cell lines, xenograft and metastatic cancer model): potent anti-tumour activity | anticancer activity [2]: strong anticancer activity | increasing survival compared with gemcitabine or 5-FU [2]: superior | preventing the spread of colon cancer metastases to the liver compared with gemcitabine or 5-FU [2]: superior | dose limiting toxicity [3]: myelosuppression | tolerability in humans [3]: well tolerated
